Test results published in PubChem BioAssay (NCI).
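Results reflect a 48-hour exposure of cells in 96-well plates to compound at five concentrations. The concentration for 50% growth inhibition is given as GI50. TGI is the concentration that stops growth completely.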

Assays:
Assay in all cases: NCI tumour cell line growth inhibition, 48 h
HOP-92 NSCLC = test system: HOP-92 NSCLC
KM12 colon = test system: KM12 colon
HS 578T breast = test system: HS 578T breast
NCI-H23 lung = test system: NCI-H23 lung
OVCAR-4 ovarian = test system: OVCAR-4 ovarian
786-0 renal = test system: 786-0 renal
T-47D breast = test system: T-47D breast
SNB-19 CNS = test system: SNB-19 CNS
MALME-3M melanoma = test system: MALME-3M melanoma
SK-MEL-5 melanoma = test system: SK-MEL-5 melanoma
CCRF-CEM leukemia = test system: CCRF-CEM leukemia
NCI-H226 lung = test system: NCI-H226 lung
RPMI-8226 leukemia = test system: RPMI-8226 leukemia
U251 CNS = test system: U251 CNS
MCF7 breast = test system: MCF7 breast
IGROV1 ovarian = test system: IGROV1 ovarian
HCC-2998 colon = test system: HCC-2998 colon
LOX IMVI melanoma = test system: LOX IMVI melanoma
OVCAR-8 ovarian = test system: OVCAR-8 ovarian
A549 NSCLC = test system: A549 NSCLC
RXF 393 renal = test system: RXF 393 renal
NCI/ADR-RES ovarian = test system: NCI/ADR-RES ovarian
UACC-257 melanoma = test system: UACC-257 melanoma
OVCAR-5 ovarian = test system: OVCAR-5 ovarian
HOP-62 NSCLC = test system: HOP-62 NSCLC
PC-3 prostate = test system: PC-3 prostate
SNB-75 CNS = test system: SNB-75 CNS
SK-OV-3 ovarian = test system: SK-OV-3 ovarian
SN12C renal = test system: SN12C renal
BT-549 breast = test system: BT-549 breast
UO-31 renal = test system: UO-31 renal
SK-MEL-28 melanoma = test system: SK-MEL-28 melanoma
M14 melanoma = test system: M14 melanoma
NCI-H522 lung = test system: NCI-H522 lung
HL-60(TB) leukemia = test system: HL-60(TB) leukemia
SW-620 colon = test system: SW-620 colon
UACC-62 melanoma = test system: UACC-62 melanoma
TK-10 renal = test system: TK-10 renal
A498 renal = test system: A498 renal
COLO 205 colon = test system: COLO 205 colon
MDA-MB-231 breast = test system: MDA-MB-231 breast
SF-295 CNS = test system: SF-295 CNS
OVCAR-3 ovarian = test system: OVCAR-3 ovarian
SF-539 CNS = test system: SF-539 CNS
MDA-MB-435 = test system: MDA-MB-435
HCT-15 colon = test system: HCT-15 colon
NCI-H460 lung = test system: NCI-H460 lung
HT29 colon = test system: HT29 colon
EKVX NSCLC = test system: EKVX NSCLC
HCT-116 colon = test system: HCT-116 colon
ACHN renal = test system: ACHN renal
SK-MEL-2 melanoma = test system: SK-MEL-2 melanoma
SF-268 CNS = test system: SF-268 CNS
DU-145 prostate = test system: DU-145 prostate

CN(C)CCCn1c2c(c3ccc(-c4ccn[nH]4)cc3c1=O)C(=O)c1ccccc1-2
GI50 (HOP-92 NSCLC): 129 nM | TGI (HOP-92 NSCLC): 10900 nM | GI50 (KM12 colon): 527 nM | TGI (KM12 colon): 2080 nM | GI50 (HS 578T breast): 4900 nM | TGI (HS 578T breast): 27100 nM | GI50 (NCI-H23 lung): 243 nM | TGI (NCI-H23 lung): 1830 nM | GI50 (OVCAR-4 ovarian): 1450 nM | TGI (OVCAR-4 ovarian): 4060 nM | GI50 (786-0 renal): 218 nM | TGI (786-0 renal): 1820 nM | GI50 (T-47D breast): 627 nM | TGI (T-47D breast): 20900 nM | GI50 (SNB-19 CNS): 332 nM | TGI (SNB-19 CNS): 1820 nM | GI50 (MALME-3M melanoma): 931 nM | TGI (MALME-3M melanoma): 2470 nM | GI50 (SK-MEL-5 melanoma): 481 nM | TGI (SK-MEL-5 melanoma): 16400 nM | GI50 (CCRF-CEM leukemia): 29.1 nM | TGI (CCRF-CEM leukemia): 1040 nM | GI50 (NCI-H226 lung): 273 nM | TGI (NCI-H226 lung): 1530 nM | GI50 (RPMI-8226 leukemia): 115 nM | TGI (RPMI-8226 leukemia): 1390 nM | GI50 (U251 CNS): 183 nM | TGI (U251 CNS): 1570 nM | GI50 (MCF7 breast): 37.8 nM | TGI (MCF7 breast): 1540 nM | GI50 (IGROV1 ovarian): 583 nM | TGI (IGROV1 ovarian): 2510 nM | GI50 (HCC-2998 colon): 10000 nM | TGI (HCC-2998 colon): 24000 nM | GI50 (LOX IMVI melanoma): 104 nM | TGI (LOX IMVI melanoma): 1460 nM | GI50 (OVCAR-8 ovarian): 163 nM | TGI (OVCAR-8 ovarian): 2270 nM | GI50 (A549 NSCLC): 57.8 nM | TGI (A549 NSCLC): 1420 nM | GI50 (RXF 393 renal): 1660 nM | TGI (RXF 393 renal): 9570 nM | GI50 (NCI/ADR-RES ovarian): 1480 nM | TGI (NCI/ADR-RES ovarian): 4760 nM | GI50 (UACC-257 melanoma): 12300 nM | TGI (UACC-257 melanoma): 29100 nM | GI50 (OVCAR-5 ovarian): 1510 nM | TGI (OVCAR-5 ovarian): 5470 nM | GI50 (HOP-62 NSCLC): 181 nM | TGI (HOP-62 NSCLC): 11600 nM | GI50 (PC-3 prostate): 1210 nM | TGI (PC-3 prostate): 2720 nM | GI50 (SNB-75 CNS): 1390 nM | TGI (SNB-75 CNS): 17300 nM | GI50 (SK-OV-3 ovarian): 1210 nM | TGI (SK-OV-3 ovarian): 11300 nM | GI50 (SN12C renal): 249 nM | TGI (SN12C renal): 10000 nM | GI50 (BT-549 breast): 3100 nM | TGI (BT-549 breast): 21100 nM | GI50 (UO-31 renal): 301 nM | TGI (UO-31 renal): 1920 nM | GI50 (SK-MEL-28 melanoma): 2010 nM | TGI (SK-MEL-28 melanoma): 5650 nM | GI50 (M14 melanoma): 1650 nM | TGI (M14 melanoma): 13900 nM | GI50 (NCI-H522 lung): 836 nM | TGI (NCI-H522 lung): 18000 nM | GI50 (HL-60(TB) leukemia): 34.6 nM | TGI (HL-60(TB) leukemia): 771 nM | GI50 (SW-620 colon): 204 nM | TGI (SW-620 colon): 2170 nM | GI50 (UACC-62 melanoma): 718 nM | TGI (UACC-62 melanoma): 18900 nM | GI50 (TK-10 renal): 2750 nM | TGI (TK-10 renal): 18800 nM | GI50 (A498 renal): 10600 nM | TGI (A498 renal): 30900 nM | GI50 (COLO 205 colon): 4920 nM | TGI (COLO 205 colon): 23700 nM | GI50 (MDA-MB-231 breast): 1270 nM | TGI (MDA-MB-231 breast): 2840 nM | GI50 (SF-295 CNS): 354 nM | TGI (SF-295 CNS): 13600 nM | GI50 (OVCAR-3 ovarian): 6090 nM | TGI (OVCAR-3 ovarian): 21500 nM | GI50 (SF-539 CNS): 1040 nM | TGI (SF-539 CNS): 6290 nM | GI50 (MDA-MB-435): 10300 nM | TGI (MDA-MB-435): 23700 nM | GI50 (HCT-15 colon): 91.5 nM | TGI (HCT-15 colon): 1480 nM | GI50 (NCI-H460 lung): 36.3 nM | TGI (NCI-H460 lung): 1550 nM | GI50 (HT29 colon): 344 nM | TGI (HT29 colon): 1990 nM | GI50 (EKVX NSCLC): 2910 nM | TGI (EKVX NSCLC): 20600 nM | GI50 (HCT-116 colon): 391 nM | TGI (HCT-116 colon): 2230 nM | GI50 (ACHN renal): 94.8 nM | TGI (ACHN renal): 1930 nM | GI50 (SK-MEL-2 melanoma): 18200 nM | TGI (SK-MEL-2 melanoma): 35800 nM | GI50 (SF-268 CNS): 1850 nM | TGI (SF-268 CNS): 15000 nM | GI50 (DU-145 prostate): 197 nM | TGI (DU-145 prostate): 10500 nM
